According to ChEMBL document CHEMBL1201862, “PubChem BioAssay data set” (2004):
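Interpolation was linear, between the two tested concentrations surrounding the appropriate level; five concentrations were tested over 48 hours in 96-well plates. Here, GI50 denotes the concentration required for 50% inhibition of growth.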 Calls of active or inactive are those of the source. Rule as the data show it: active = GI50 up to about 1.1 µM and inactive = higher.

Assays:
Assay in all cases: NCI tumour cell line growth inhibition, 48 h
786-0 = tested on: 786-0
A498 = tested on: A498
A549 = tested on: A549
ACHN = tested on: ACHN
BT-549 = tested on: BT-549
CAKI-1 = tested on: CAKI-1
CCRF-CEM = tested on: CCRF-CEM
COLO 205 = tested on: COLO 205
DU-145 = tested on: DU-145
EKVX = tested on: EKVX
HCC 2998 = tested on: HCC 2998
HCT-116 = tested on: HCT-116
HCT-15 = tested on: HCT-15
HL-60 = tested on: HL-60
HOP-62 = tested on: HOP-62
HOP-92 = tested on: HOP-92
HT-29 = tested on: HT-29
IGROV-1 = tested on: IGROV-1
K562 = tested on: K562
KM12 = tested on: KM12
LOX IMVI = tested on: LOX IMVI
M14 = tested on: M14
MCF7 = tested on: MCF7
MDA-MB-231 = tested on: MDA-MB-231
MDA-MB-435 = tested on: MDA-MB-435
MDA-N = tested on: MDA-N
MOLT-4 = tested on: MOLT-4
NCI-H226 = tested on: NCI-H226
NCI-H23 = tested on: NCI-H23
NCI-H522 = tested on: NCI-H522
NCI/ADR-RES = tested on: NCI/ADR-RES
OVCAR-3 = tested on: OVCAR-3
OVCAR-4 = tested on: OVCAR-4
OVCAR-5 = tested on: OVCAR-5
OVCAR-8 = tested on: OVCAR-8
PC-3 = tested on: PC-3
RPMI-8226 = tested on: RPMI-8226
SF-295 = tested on: SF-295
SF-539 = tested on: SF-539
SK-MEL-28 = tested on: SK-MEL-28
SK-MEL-2 = tested on: SK-MEL-2
SK-MEL-5 = tested on: SK-MEL-5
SK-OV-3 = tested on: SK-OV-3
SN12C = tested on: SN12C
SNB-19 = tested on: SNB-19
SR = tested on: SR
SW-620 = tested on: SW-620
T47D = tested on: T47D
TK-10 = tested on: TK-10
U-251 = tested on: U-251
UACC-257 = tested on: UACC-257
UACC-62 = tested on: UACC-62
UO-31 = tested on: UO-31
Hs-578T = tested on: Hs-578T
Malme-3M = tested on: Malme-3M
NCI-H460 = tested on: NCI-H460
RXF 393 = tested on: RXF 393
SF-268 = tested on: SF-268
SNB-75 = tested on: SNB-75

In the case of `OCC(O)COCn1cc(Cn2ncc3c(O)ncnc32)nn1` (configuration not stated), the GI50 (786-0) is reported as > 100 µM (inactive), the GI50 (A498) is reported as > 100 µM (inactive) and the GI50 (A549) is reported as > 100 µM (inactive). For the same compound, the GI50 (ACHN) was > 100 µM (inactive), the GI50 (BT-549) was > 100 µM (inactive) and the GI50 (CAKI-1) was > 100 µM (inactive). The GI50 (CCRF-CEM) was > 100 µM (inactive), the GI50 (COLO 205) was > 100 µM (inactive) and the GI50 (DU-145) was > 100 µM (inactive). The GI50 (EKVX) was > 100 µM (inactive), the GI50 (HCC 2998) was > 100 µM (inactive) and the GI50 (HCT-116) was > 100 µM (inactive). For the same compound, the GI50 (HCT-15) was greater than 100 µM, the GI50 (HL-60) was > 100 µM (inactive) and the GI50 (HOP-62) was > 100 µM (inactive). For the same compound, the GI50 (HOP-92) was > 100 µM (inactive), the GI50 (HT-29) was > 100 µM (inactive) and the GI50 (IGROV-1) was > 100 µM (inactive). The GI50 (K562) was > 100 µM (inactive), the GI50 (KM12) was > 100 µM (inactive) and the GI50 (LOX IMVI) was > 100 µM (inactive). For the same compound, the GI50 (M14) was > 100 µM (inactive), the GI50 (MCF7) was > 100 µM (inactive) and the GI50 (MDA-MB-231) was > 100 µM (inactive). For the same compound, the GI50 (MDA-MB-435) was > 100 µM (inactive), the GI50 (MDA-N) was > 100 µM (inactive) and the GI50 (MOLT-4) was > 100 µM (inactive). The GI50 (NCI-H226) was > 100 µM (inactive), the GI50 (NCI-H23) was > 100 µM (inactive) and the GI50 (NCI-H522) was 28.5 µM (inactive). The GI50 (NCI/ADR-RES) was > 100 µM (inactive), the GI50 (OVCAR-3) was > 100 µM (inactive) and the GI50 (OVCAR-4) was > 100 µM (inactive). The GI50 (OVCAR-5) was > 100 µM (inactive), the GI50 (OVCAR-8) was > 100 µM (inactive) and the GI50 (PC-3) was > 100 µM (inactive). The GI50 (RPMI-8226) was > 100 µM (inactive), the GI50 (SF-295) was > 100 µM (inactive) and the GI50 (SF-539) was > 100 µM (inactive). For the same compound, the GI50 (SK-MEL-28) was > 100 µM (inactive), the GI50 (SK-MEL-2) was > 100 µM (inactive) and the GI50 (SK-MEL-5) was > 100 µM (inactive). The GI50 (SK-OV-3) was > 100 µM (inactive), the GI50 (SN12C) was > 100 µM (inactive) and the GI50 (SNB-19) was > 100 µM (inactive). The GI50 (SR) was > 100 µM (inactive), the GI50 (SW-620) was > 100 µM (inactive) and the GI50 (T47D) was > 100 µM (inactive). For the same compound, the GI50 (TK-10) was > 100 µM (inactive), the GI50 (U-251) was > 100 µM (inactive) and the GI50 (UACC-257) was > 100 µM (inactive). For the same compound, the GI50 (UACC-62) was > 100 µM (inactive) and the GI50 (UO-31) was > 100 µM (inactive).
`COC(=O)c1c(O)ccc2c1c1c(n2Cc2ccccn2)C(=O)c2ccccc2C1` was tested, and the GI50 (786-0) was > 100 µM (inactive), the GI50 (A498) was > 100 µM (inactive) and the GI50 (A549) was 66.1 µM (inactive). The GI50 (BT-549) was > 100 µM (inactive), the GI50 (CAKI-1) was 19.1 µM (inactive) and the GI50 (CCRF-CEM) was 27.9 µM (inactive). The GI50 (COLO 205) was 13.5 µM (inactive), the GI50 (DU-145) was > 100 µM (inactive) and the GI50 (HCT-116) was 50 µM (inactive). For the same compound, the GI50 (HCT-15) was greater than 100 µM, the GI50 (HL-60) was > 100 µM (inactive) and the GI50 (HOP-62) was > 100 µM (inactive). The GI50 (HT-29) was 32.8 µM (inactive), the GI50 (Hs-578T) was > 100 µM (inactive) and the GI50 (IGROV-1) was 71 µM (inactive). For the same compound, the GI50 (K562) was > 100 µM (inactive), the GI50 (KM12) was > 100 µM (inactive) and the GI50 (LOX IMVI) was > 100 µM (inactive). For the same compound, the GI50 (M14) was > 100 µM (inactive), the GI50 (MCF7) was 22.9 µM (inactive) and the GI50 (MDA-MB-231) was > 100 µM (inactive). For the same compound, the GI50 (MDA-MB-435) was 86.5 µM (inactive), the GI50 (MDA-N) was > 100 µM (inactive) and the GI50 (MOLT-4) was 95.1 µM (inactive). For the same compound, the GI50 (Malme-3M) was > 100 µM (inactive), the GI50 (NCI-H226) was > 100 µM (inactive) and the GI50 (NCI-H23) was > 100 µM (inactive). For the same compound, the GI50 (NCI-H460) was 50.2 µM (inactive), the GI50 (NCI/ADR-RES) was 44.4 µM (inactive) and the GI50 (OVCAR-3) was > 100 µM (inactive). The GI50 (OVCAR-4) was 19.4 µM (inactive), the GI50 (OVCAR-5) was 49.8 µM (inactive) and the GI50 (OVCAR-8) was > 100 µM (inactive). For the same compound, the GI50 (PC-3) was 16.5 µM (inactive), the GI50 (RPMI-8226) was 13 µM (inactive) and the GI50 (RXF 393) was 31.6 µM (inactive). The GI50 (SF-268) was 74.5 µM (inactive), the GI50 (SF-295) was > 100 µM (inactive) and the GI50 (SF-539) was 87.9 µM (inactive). For the same compound, the GI50 (SK-MEL-28) was > 100 µM (inactive), the GI50 (SK-MEL-2) was 75 µM (inactive) and the GI50 (SK-MEL-5) was > 100 µM (inactive). For the same compound, the GI50 (SK-OV-3) was 96.2 µM (inactive), the GI50 (SN12C) was > 100 µM (inactive) and the GI50 (SNB-19) was > 100 µM (inactive). For the same compound, the GI50 (SNB-75) was > 100 µM (inactive), the GI50 (SR) was > 100 µM (inactive) and the GI50 (SW-620) was > 100 µM (inactive). For the same compound, the GI50 (TK-10) was > 100 µM (inactive), the GI50 (U-251) was > 100 µM (inactive) and the GI50 (UACC-257) was 82.8 µM (inactive). For the same compound, the GI50 (UACC-62) was > 100 µM (inactive) and the GI50 (UO-31) was 54.5 µM (inactive).
In the case of `O=C(O)c1ccccc1/C=C1\Cc2ccccc2C1=O`, the GI50 (786-0) is reported as > 100 µM (inactive), the GI50 (A498) is reported as > 100 µM (inactive) and the GI50 (A549) is reported as > 100 µM (inactive). For the same compound, the GI50 (ACHN) was > 100 µM (inactive), the GI50 (BT-549) was 19.3 µM (inactive) and the GI50 (CAKI-1) was > 100 µM (inactive). The GI50 (CCRF-CEM) was > 100 µM (inactive), the GI50 (COLO 205) was 48.4 µM (inactive) and the GI50 (DU-145) was > 100 µM (inactive). The GI50 (EKVX) was > 100 µM (inactive), the GI50 (HCC 2998) was > 100 µM (inactive) and the GI50 (HCT-116) was > 100 µM (inactive). The GI50 (HCT-15) was greater than 100 µM, the GI50 (HL-60) was > 100 µM (inactive) and the GI50 (HOP-62) was > 100 µM (inactive). The GI50 (HT-29) was 38.2 µM (inactive), the GI50 (Hs-578T) was > 100 µM (inactive) and the GI50 (IGROV-1) was > 100 µM (inactive). For the same compound, the GI50 (K562) was > 100 µM (inactive), the GI50 (KM12) was > 100 µM (inactive) and the GI50 (LOX IMVI) was 91 µM (inactive). The GI50 (M14) was > 100 µM (inactive), the GI50 (MCF7) was > 100 µM (inactive) and the GI50 (MDA-MB-435) was > 100 µM (inactive). The GI50 (MDA-N) was > 100 µM (inactive), the GI50 (MOLT-4) was > 100 µM (inactive) and the GI50 (Malme-3M) was > 100 µM (inactive). The GI50 (NCI-H226) was > 100 µM (inactive), the GI50 (NCI-H23) was > 100 µM (inactive) and the GI50 (NCI-H460) was > 100 µM (inactive). For the same compound, the GI50 (NCI-H522) was > 100 µM (inactive), the GI50 (NCI/ADR-RES) was > 100 µM (inactive) and the GI50 (OVCAR-3) was > 100 µM (inactive). The GI50 (OVCAR-4) was > 100 µM (inactive), the GI50 (OVCAR-5) was > 100 µM (inactive) and the GI50 (OVCAR-8) was > 100 µM (inactive). For the same compound, the GI50 (PC-3) was > 100 µM (inactive), the GI50 (RPMI-8226) was 71.4 µM (inactive) and the GI50 (RXF 393) was > 100 µM (inactive). For the same compound, the GI50 (SF-268) was > 100 µM (inactive), the GI50 (SF-295) was > 100 µM (inactive) and the GI50 (SF-539) was > 100 µM (inactive). For the same compound, the GI50 (SK-MEL-28) was > 100 µM (inactive), the GI50 (SK-MEL-2) was 67.1 µM (inactive) and the GI50 (SK-MEL-5) was 47.2 µM (inactive). For the same compound, the GI50 (SN12C) was > 100 µM (inactive), the GI50 (SNB-19) was > 100 µM (inactive) and the GI50 (SNB-75) was > 100 µM (inactive). For the same compound, the GI50 (SR) was > 100 µM (inactive), the GI50 (SW-620) was > 100 µM (inactive) and the GI50 (T47D) was > 100 µM (inactive). For the same compound, the GI50 (TK-10) was > 100 µM (inactive), the GI50 (U-251) was > 100 µM (inactive) and the GI50 (UACC-257) was > 100 µM (inactive). For the same compound, the GI50 (UACC-62) was > 100 µM (inactive) and the GI50 (UO-31) was > 100 µM (inactive).
